Laboratory results published in patent US12449422B2, “Method and composition matter for immunoproteasome-mediated delivery into living cells” (Purdue Research Foundation, priority 2019, dated 2025).
No end group written: not given here.

Tests used:
A549 cells [1] = assay: Cell Titer-Glo luminescent cell viability assay; assay type: cell-based
Procedure: A549 cells were treated with 5 ng/mL IFN-γ for 4 days then split into a black 96-well plate at a density of 5,000 cells/well along with non-IFN-γ treated cells. Cells were allowed to adhere overnight before performing assays. The media was removed and fresh media (50 μL) was added to each well. Each probe was added to each well at the corresponding concentration and the plate was returned to the incubator for the given amount of time. To remove any signal due to FBS in the media, the media was removed and cells were washed with PBS (3 times). After the final wash, PBS (50 μL) was added to each well. The plate was incubated at 37° C. in the plate reader, monitoring the change in fluorescence (Ex—485(20) nm, Em—535(20) nm for Rh-probes; gain=90). Samples were run in five replicates and any outliers (outside the range of average±standard deviation) were removed (no more than two replicates per sample were removed). […] To ensure that observed differences in fluorescence were not due to a difference in total cells or cell viability, a Cell Titer-Glo® luminescent cell viability assay (Promega) was performed in a separate white 96 well plate using the same conditions per the manufacturer's protocol. Luminescence was recorded using a BioTek Synergy™ Neo2 Multimode Microplate Reader. […]

iCP [2] = biological target: T1, iCP (Homo sapiens, UniProt P28062); assay: LC/MS analysis of TBZ1 cleavage with purified iCP; assay type: biochemical; conditions: 31 μM, 9 nM iCP, 55 min, 37° C.
T1 construct: purchased Boston Biochem
Description: (§1) We first analyzed TBZ1 in the same conditions as the biochemical assay without any iCP to confirm there was not any non-specific degradation occurring during the LC/MS run. In this, we only observed the two isomers of our probe. After treatment with the iCP, we observed two new peaks in the TIC spectrum. These corresponded to the expected Rh-peptoid and peptide fragments. The full mass of TBZ1 was extracted from each triplicate and compared between iCP and sCP samples. […] When this analysis was performed using sCP, we observed that 77% remained uncleaved.
(§2) In the same way as the biochemical assays (FIG. 11), TBZ1 (31 μM) was incubated at 37° C. with or without purified proteasome (9 nM) in 50 mM tris HCl buffer (pH 7.6) for 55 min in triplicate. After incubation, samples were quenched by adding 50 μL of HPLC-grade acetonitrile. The samples were dried under vacuum then resuspended in 50/50 water/acetonitrile with 0.1% formic acid (100 μL). Samples (50 μL) were analyzed by LC/MS (Agilent 1260 Infinity II with a Zorbax Eclipse Plus C18 column, 2.1×50 mm, 1.8-micron attached to an Agilent 6129 quadrupole mass spectrometer). […] Percent TBZ1 remaining in treated samples was determined by comparing the averages of untreated vs. treated samples.

sCP [3] = biological target: T2, sCP (Homo sapiens, UniProt P28074); assay: LC/MS analysis of TBZ1 cleavage with purified sCP; assay type: biochemical; conditions: 31 μM, 9 nM sCP, 55 min, 37° C.
T2 construct: purchased Boston Biochem
Description: as §1, §2

A549 cells [4] = assay: Cellular assay with TBZ1, plate-reader fluorescence; assay type: cell-based; conditions: 31 μM TBZ1, 15 and 60 min
Procedure: To determine the selectivity of TBZ1 in cells, both untreated cells and cells treated with IFN-γ were plated at the same cell density into a 96-well plate for fluorescence readouts. After allowing sufficient time for the cells to adhere to the wells, TBZ1 was added and allowed to incubate for various time points. Following the initial incubation, wells were washed with PBS to remove any probe that had not been taken up by the cells and the plate was incubated for an additional hour before the fluorescence was recorded. […] We initially intended to use TBZ4 as a way to confirm that the addition of a peptoid improved cell penetration and protease stability of TBZ1. […]
A549 cells were treated with 5 ng/mL IFN-γ for 4 days then split into a black 96-well plate at a density of 5,000 cells/well along with non-IFN-γ treated cells. […] The plate was incubated at 37° C. in the plate reader, monitoring the change in fluorescence (Ex—485(20) nm, Em—535(20) nm for Rh-probes; gain=90). […] To ensure that observed differences in fluorescence were not due to a difference in total cells or cell viability, a Cell Titer-Glo® luminescent cell viability assay (Promega) was performed in a separate white 96 well plate using the same conditions per the manufacturer's protocol. Luminescence was recorded using a BioTek Synergy™ Neo2 Multimode Microplate Reader. […]

IFN-γ treated A549 cells = assay: Confocal imaging with TBZ1; assay type: cell-based; conditions: 31 μM TBZ1, one hour, vs DMSO
Procedure: As an additional way to visualize the cells treated with TBZ1, we analyzed IFN-γ cells using confocal microscopy. Following a similar procedure as the plate reader assay, IFN-γ treated cells were plated on glass coverslip chambers coated with poly-D-lysine and were dosed with TBZ1 (31 μM) or DMSO for one hour. After washing, the cells were returned to the incubator for 30 min before staining with Super Bright 436 HLA-A, B, C antibody to serve as a membrane marker.
After four days of treatment with IFN-γ, A549 cells were plated into 8-well chambered coverglass plates that had been coated with poly-d-lysine (20,000 cells/well). The cells were allowed to adhere overnight then washed once with PBS. Fresh media including 31 μM TBZ1 was added to wells in triplicate and incubated for one hour. After incubation, the cells were washed with PBS (3 times) then kept in 200 μL modified Krebs-Ringer buffer (134 mM NaCl, 3.5 mM KCl, 1.2 mM K2HPO4·3H2O, 0.5 mM MgSO4·7H2O, 1.5 mM CaCl2·2H2O, 5 mM NaHCO3 and 10 mM HEPES, pH 7.4). The samples were returned to the incubator. After 30 min, Super Bright 436 HLA-ABC monoclonal antibody (ThermoFisher #62-9983-42) was added to each well (1 μL/well, 0.1 μg) and the samples were returned to the incubator for an additional 30 min. The samples were again washed with PBS and suspended in modified Krebs-Ringer buffer (200 μL) for imaging. […]

A549 cells [5] = assay: Flow cytometry with TBZ1; assay type: cell-based; conditions: 31 μM TBZ1, preliminary, single replicate
Procedure: A549 cells untreated and treated with IFN-γ were each plated into 4 wells of a 12-well plate at 300,000 cells/well. The cells were allowed to adhere overnight. To each well was added fresh media (500 μL) with either DMSO alone or TBZ1 (final concentration=31 μM). The plate was returned to the incubator for an hour. The cells were then washed with PBS (3 times). The plate was incubated for an additional hour in PBS. The cells were removed from each well using trypsin-EDTA solution. After centrifuging and removing the media, the cells were resuspended in PBS. Samples were mixed at a ratio of 1:1 -IFN-γ to +IFN-γ cells then all three samples were analyzed by flow cytometry using a Guava EasyCyte instrument with Guava CytoSoft™ software. Samples were excited with a 488 nm laser and fluorescence intensity was recorded from the 525 nm filter cube. Image analysis was performed using FlowJo v10. Data shown in FIG. 17 is of a single replicate.

iCP [6] = biological target: T1, iCP; assay: Hit validation: LC/MS of OVA released from hit peptides by iCP; assay type: biochemical; conditions: for iCP % Change OVA: 5.2 μM peptide, 4 nM iCP, 6 hours, 37° C., vs EIC of control peptide Ala-Ala-Ala-Phe-OVA; for Selectivity: iCP over sCP
Procedure: (§3) Validation assays were performed under similar conditions as the screen. Briefly, 5 μM of each hit peptide was incubated at 37° C. with 4 nM iCP for six hours in triplicate, then analyzed by LC/MS. All peptides were also analyzed under identical conditions using 4 nM sCP. This was done to confirm that our library design yielded the desired selectivity and not simply sequences that could be efficiently cleaved by either isoform. The mass of OVA was extracted and integrated for each sample, averaging the triplicates. […] Of the nine total hits, six validated successfully. Additionally, all validated hits had at least 1.4-fold selectivity for the iCP (FIG. 4C and FIG. 5). We chose to move forward with the sequence Ala-Thr-Met-Trp, as this not only had highly efficient cleavage by the iCP but also was close to 5-fold selective for the iCP compared to the sCP.
(§4) For validation, purified hit sequences (46 μL final concentration 5.2 μM) in 50 mM tris buffer, pH 7.6 were added to nine wells of a 96 well plate. To each triplicate, 4 μL of tris buffer, 50 nM iCP (final concentration 4 nM) or 50 nM sCP (final concentration 4 nM) was added. This was sealed and allowed to incubate for 6 hours at 37° C. HPLC-grade acetonitrile (50 μL) was added to each sample and the samples were then dried under vacuum. Dried samples were resuspended in 100 μL 50/50 water/acetonitrile with 0.1% formic acid. Each sample was then analyzed by LC/MS with an injection volume of 90 μL. The mass of OVA (887.0-887.9) was extracted. The peak at the same time point as the standard was then integrated and averaged over the triplicate for each sample. Percent change was considered for each triplicate in comparison to the EIC of the control peptide sequence (Ala-Ala-Ala-Phe-OVA). Raw data for integrated OVA peaks can be seen in FIG. 5. Each bar represents an average of triplicates with error bars given as the standard deviation.

sCP [7] = biological target: T2, sCP; assay: Hit validation: LC/MS of OVA released from hit peptides by sCP; assay type: biochemical; conditions: 5.2 μM peptide, 4 nM sCP, 6 hours, 37° C.; vs EIC of control peptide Ala-Ala-Ala-Phe-OVA
Procedure: as §3, §4

iCP [8] = biological target: T1, iCP; assay: Biochemical assay with fluorogenic substrate probes and purified proteasome; conditions: 31 μM probe, 9 nM proteasome, 37° C.
Procedure: Initially, we treated various concentrations of TBZ1 from 0-250 μM with both the iCP and sCP (FIG. 11). All concentrations were incubated at 37° C. with 9 nM of the respective proteasomes and the increase in fluorescence was monitored for 60 min at 1 min intervals. We found 31 μM of TBZ1 to give a favorable profile, maintaining about a 3:1 selectivity compared to the sCP (FIG. 6).
The remaining probes were studied at 31 μM and monitored for an increase in fluorescence over 30 minutes. […] Finally, we also sought to compare TBZ1 to the commercially available, iCP-selective substrate probe Ac-ANW-AMC.
Each probe was dissolved in DMSO at a proper stock concentration such that the final concentration of DMSO in the sample is 2%. For TBZ1, a two-fold serial dilution was performed to determine the optimal concentration for biochemical assays. Each stock was then diluted in 50 mM tris buffer, pH 7.6 (1 μL stock per 40 μL buffer) and added to a black 96 well plate in triplicate (41 μL per well). Stocks ([…] in 50 mM tris buffer, pH 7.6) of either iCP or sCP was added to each well (9 μL/well, final concentration=9 nM). The change in fluorescence (Ex—485(20) nm, Em—535(20) nm; gain=50) was monitored over time on a Tecan Infinite 200® Pro Microplate Reader. Data was plotted as the average of triplicate samples using GraphPad Prism 7 and can be found in FIG. 11. […]

In the case of COc1ccc(C[C@H](NC(=O)[C@H](C)NC(=O)CN2CCOCC2)C(=O)N[C@@H](Cc2ccccc2)C(=O)C2(C)CO2)cc1 (stereo in doubt) [ONX-0914], the “cell death with ONX-0914 (Cell Titer-Glo)” value (A549 cells [1]; ONX-0914 20 μM, IFN-γ treated A549 cells) is reported as “not due to cell death”.
COCCCN(CC(=O)N(CCCN(C)C)CC(N)=O)C(=O)CN(CCCN(C)C)C(=O)CNC(=O)CCC(=O)Nc1ccc2c(c1)Oc1cc(NC(=O)[C@H](Cc3c[nH]c4ccccc34)NC(=O)[C@H](CCSC)NC(=O)[C@@H](NC(=O)[C@H](C)N)C(C)O)ccc1C21OC(=O)c2ccccc21 (stereo partly shown) [TBZ1] was tested, and the “uncleaved TBZ1 remaining in iCP samples” value (iCP [2]) was 31%, the “TBZ1 remaining uncleaved with sCP” value (sCP [3]) was 77% and the “fluorescence signal in IFN-γ treated vs regular A549 cells” value (A549 cells [4]) was “significantly increased signal for IFN-γ treated cells”. The “cell viability (Cell Titer-Glo) after TBZ1 treatment” value (A549 cells [1]; untreated vs IFN-γ treated A549 cells) was “no significant difference”, the “intracellular staining by confocal microscopy” value (IFN-γ treated A549 cells) was “increased staining due to probe cleavage within the cell” and the “separation of cell populations by flow cytometry” value (A549 cells [5]) was “cell populations can be separated based on increasing amounts of iCP-expressing cells”.
In the case of “Ala-Ala-Ala-Phe-OVA [reference compound]”, the “iCP % Change OVA” value (iCP [6]) is reported as 0%, the Selectivity (iCP [6]; OVA released) is reported as 1.3 and the “sCP % Change OVA” value (sCP [7]) is reported as −25%.
His-Gly-Gly was tested, and the “iCP % Change OVA” value (iCP [6]) was −82%, the Selectivity (iCP [6]; OVA released) was 0.8 and the “sCP % Change OVA” value (sCP [7]) was −78%.
“TBZ2 (AEPY; also: ['rhodamine probe conjugate with peptoid group'])” was tested, and the “change in fluorescence / cleavage by purified proteasome” value (iCP [8]) was “very minimal fluorescence”.
In the case of TBZ4 (ATMW; also: rhodamine probe), the “change in fluorescence / cleavage by purified proteasome” value (iCP [8]) is reported as “not as efficiently cleaved at TBZ1”.
“Thr-Met-Trp: hit peptide: N-terminal Ala, P3-P2-P1 Thr-Met-Trp, attached to modified OVA (ATMW; also: attached to modified OVA)” was tested, and the “iCP % Change OVA” value (iCP [6]) was “+1502%”, the “selectivity for the iCP compared to the sCP” value (iCP [6]; hit validation, OVA released) was ~5 fold and the Selectivity (iCP [6]; OVA released) was 4.8. For the same compound, the “sCP % Change OVA” value (sCP [7]) was “+232%”.
